Values of other authors in paper PMC11007962, “First-in-human study of GFH018, a small molecule inhibitor of transforming growth factor-β receptor I inhibitor, in patients with advanced solid tumors” (BMC Cancer, 2024).

Columns and labels:
[1] = system: TGF-β-induced SMAD3 phosphorylation; parameters: method as in doi:10.1158/1538-7445.AM2019-3072; details: preclinical; cited from earlier work
[2] = parameters: method as in doi:10.1158/1538-7445.AM2019-3072; details: preclinical; cited from earlier work
[3] = parameters: method as in PMID 25488804, PMID 26309397; details: consecutive regimens; cited from earlier work

SMILES: Cc1cccc(-c2nn3c(c2-c2ccc4ncnn4c2/C=C/C(N)=O)CCC3)n1 [GFH018]
- effect on TGF-β-induced SMAD3 phosphorylation [1]: ability to inhibit TGF-β-induced SMAD3 phosphorylation
- effect in combination with anti-PD-1/L1 antibodies [2]: Synergistic effects were observed
- cardiac findings in toxicology studies [3]: cardiac lesions occur
